Experimental data as given in patent US11958865B1, “Leucine-rich repeat kinase 2 (LRRK2) inhibitors” (H. Lundbeck A/S, priority 2022, dated 2024).

Experiments:
[1] = Hepatic microsomal intrinsic clearance assay; assay type: in vitro ADME; conditions: pooled liver microsomes, pH 7.4; liver microsomes 0.5 mg/mL; 1 μM; NADPH; 1 hour at 37° C.; LLOQ 0.36 L/h/kg
In short: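 Compounds at 1 μM final were incubated with pooled liver microsomes (0.5 mg/mL) in phosphate buffer pH 7.4 at 37 °C for up to 60 min. Samples taken at 0, 5, 10, 20, 30 and 60 min were quenched with acetonitrile and analysed by LC-MS/MS.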

LRRK2 G2019S = LRRK2 G2019S (Homo sapiens (Human), UniProt Q5S007, G2019S); experiment: LRRK2 G2019S LanthaScreen TR-FRET kinase activity assay; assay type: biochemical; conditions: 250 pM kinase, 1.3 mM ATP, n≥2 tests
LRRK2 G2019S, sequence (Q5S007 970-2527 G2019S): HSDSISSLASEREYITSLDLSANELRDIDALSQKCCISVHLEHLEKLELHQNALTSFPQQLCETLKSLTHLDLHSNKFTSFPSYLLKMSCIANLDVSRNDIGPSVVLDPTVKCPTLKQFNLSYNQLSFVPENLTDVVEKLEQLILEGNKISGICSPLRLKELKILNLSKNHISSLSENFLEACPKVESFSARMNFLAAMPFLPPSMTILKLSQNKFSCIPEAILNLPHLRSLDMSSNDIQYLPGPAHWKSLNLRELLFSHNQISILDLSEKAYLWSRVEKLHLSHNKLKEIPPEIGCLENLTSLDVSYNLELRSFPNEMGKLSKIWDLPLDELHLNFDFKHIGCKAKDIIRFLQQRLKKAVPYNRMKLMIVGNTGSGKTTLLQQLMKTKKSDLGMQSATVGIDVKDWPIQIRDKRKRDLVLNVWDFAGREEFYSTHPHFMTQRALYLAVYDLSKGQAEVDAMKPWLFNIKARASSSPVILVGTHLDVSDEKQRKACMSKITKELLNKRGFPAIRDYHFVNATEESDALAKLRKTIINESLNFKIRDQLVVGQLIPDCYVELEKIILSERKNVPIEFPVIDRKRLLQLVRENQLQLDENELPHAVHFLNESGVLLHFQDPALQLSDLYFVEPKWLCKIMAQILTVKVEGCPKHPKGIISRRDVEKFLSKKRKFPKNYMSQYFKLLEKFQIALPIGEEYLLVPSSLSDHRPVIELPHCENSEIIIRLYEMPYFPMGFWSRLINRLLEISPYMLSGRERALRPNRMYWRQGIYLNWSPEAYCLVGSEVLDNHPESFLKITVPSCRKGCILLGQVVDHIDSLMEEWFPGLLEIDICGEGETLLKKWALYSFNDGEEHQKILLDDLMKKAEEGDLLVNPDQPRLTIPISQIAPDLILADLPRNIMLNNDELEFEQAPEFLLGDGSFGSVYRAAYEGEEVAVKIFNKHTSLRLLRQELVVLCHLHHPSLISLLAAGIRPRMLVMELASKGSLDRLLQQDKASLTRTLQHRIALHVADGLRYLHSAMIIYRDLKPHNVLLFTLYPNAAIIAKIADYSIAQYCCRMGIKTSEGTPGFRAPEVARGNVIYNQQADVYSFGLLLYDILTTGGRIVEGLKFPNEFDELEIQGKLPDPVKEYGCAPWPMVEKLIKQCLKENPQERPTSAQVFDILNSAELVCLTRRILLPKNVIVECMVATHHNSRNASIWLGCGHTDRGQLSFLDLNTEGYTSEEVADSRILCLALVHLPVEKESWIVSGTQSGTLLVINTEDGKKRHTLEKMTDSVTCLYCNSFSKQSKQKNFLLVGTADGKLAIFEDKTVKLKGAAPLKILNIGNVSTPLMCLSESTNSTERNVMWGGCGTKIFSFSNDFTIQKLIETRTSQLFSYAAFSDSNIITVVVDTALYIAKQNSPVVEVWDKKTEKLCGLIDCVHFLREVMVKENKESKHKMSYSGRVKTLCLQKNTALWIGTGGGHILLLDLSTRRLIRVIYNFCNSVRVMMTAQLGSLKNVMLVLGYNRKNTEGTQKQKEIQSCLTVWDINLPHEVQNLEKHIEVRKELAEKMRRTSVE
Experimental: (§1) LRRK2 kinase activity was measured using a LanthaScreen kinase activity assay available from Invitrogen (Life Technologies Corporation). […] The phosphorylated peptide is recognized by a terbium-labelled phospho-specific anti-LRRKtide antibody (pLRRKtide antibody), obtainable from Life Technologies Corporation) and, subsequently, the phosphorylated LRRKtide can be quantified by the extent of TR-FRET between the terbium donor and fluorescein acceptor.
(§2) As discussed above, this mutation increases the kinase activity relative to the wild type. The kinase reactions were performed in a 20 μL volume in 384-well plates. The kinase reaction buffer consisted of 50 mM Tris pH 8.5, 0.01% BRIJ-35, 10 mM MgCl2, 1 mM EGTA, and 2 mM DTT.
(§3) The mixture was further incubated for 30 minutes at RT. TR-FRET was measured by excitation of the terbium-donor with 340 nm light and subsequent (delay time […]) measurement of terbium and fluorescein emission at 495 nm and 520 nm, respectively, over a time window of […]. The measurement was repeated 30 times for fluorescein and 30 times for terbium emission with a […] between repeats. TR-FRET measurements were performed on a Biotek Synergy plate. The TR-FRET signal was calculated as the emission-ratio at 520 nm over 495 nm.
(§4) Test compound potency (IC50) was estimated by nonlinear regression using the sigmoidal dose-response (variable slope) using Xlfit 4 (IDBS, Guildford, Surrey, UK, model 205). Were the IC50 could not be determined the % inhibition at the highest tested concentration is given by equation 1. Equation (1): y=(A+((B−A)/(1+((C/x)^D)))) (1)
(§5) where y is the normalized TR-TRET ratio measurement for a given concentration of test compound, x is the concentration of test compound, A is the estimated efficacy (% inhibition) at infinite compound dilution, and B is the maximal efficacy (% inhibition). C is the IC50 value and D is the Hill slope coefficient. IC50 estimates were obtained from independent experiment and the logarithmic average was calculated.

[2] = Hepatocyte intrinsic clearance assay; assay type: in vitro ADME, Human; conditions: pooled donor, cryopreserved hepatocytes, pH 7.4; human hepatocytes 1×10^6/mL; 0.05 μM; 2 h at 37° C.
Experimental: Test compounds (final concentration 0.05 μM, 0.05% organic) were incubated for 2 h at 37° C., with shaking, in supplemented Leibovitz L-15 media (pH 7.4) containing commercially sourced, pooled donor, cryopreserved hepatocytes (final concentration 1×10^6 hepatocytes/mL). The CLint reactions (350 μL) were initiated by addition of test compound. Aliquots (25 μL) were taken at 1, 5, 10, 15, 30, 60, 90 and 120 minutes and then protein crashed with ice-cold acetonitrile containing internal standard (150 μL) then centrifuged (1960 g for 20 minutes at 4° C.). Supernatant was diluted (1:4) with deionized water then analyzed by liquid chromatography (LC)-tandem mass spectrometry (MS/MS).

LRRK2 WT [3] = molecular target: T1, LRRK2 WT (Homo sapiens (Human), UniProt Q5S007); experiment: LRRK2 wild-type ADP-Glo kinase assay; assay type: biochemical; conditions: read-out: LRRK2 WT ADPGlo IC50
T1 sequence (Q5S007 970-2527): as the sequence (Q5S007 970-2527 G2019S) above, with S1050G counted along it
Experimental: LRRK2 kinase activity was measured using an ADP-Glo kinase assay from Promega Corporation. The assay is a homogeneous luminescence-based assay that measures ADP formed from a kinase reaction. The ADP is converted into ATP, which is used to generate light in a luciferase reaction. The luminescence generated correlates with kinase activity.
The LRRK2 kinase was obtained from Invitrogen (Life Technologies Corporation) and comprises residue 970 to 2527 of the full length human wild-type LRRK2 kinase. The kinase reactions were performed in a 10 μL volume in 384-well plates. The kinase reaction buffer consisted of 50 mM Tris pH 8.5, 0.01% BRIJ-35, 10 mM MgCl2, 1 mM EGTA, and 2 mM DTT.
The reaction mixture (10 μl total volume) was incubated for 3 hours at room temperature (RT, ca. 25° C.), before the reaction was terminated by addition of 10 μl ADP-Glo reagent. The mixture was further incubated for 60 minutes at RT before addition of 20 μl Kinase detection reagent from the ADP-Glo assay kit. Luminescence signal was measure on a BMG Labtech Pherastar FSX multimode microplate reader. The signal integration time was 0.5 s.
Test compound potency (Ki,app) was estimated by nonlinear regression using the tight-binding fit model in GeneData Screener (GeneData AG). In cases where the Ki,app could not be determined, the % inhibition at the highest tested concentration is reported. The tight-binding fit model is given by euquation (2). […] Ki,app is the apparent dissociation constant of the inhibitor. The IC50 can be calculated as given by equation (3). Equation (3): IC50=Ki,app+[E]/2 (3) IC50 estimates were obtained from independent experiment and the logarithmic average was calculated.

LRRK2 WT [4] = molecular target: T1, LRRK2 WT; experiment: LRRK2 wild-type LanthaScreen TR-FRET kinase activity assay; assay type: biochemical; conditions: 1 nM kinase, 1.3 mM ATP, n≥2 tests
Experimental: as §1, §2, §3, §4, §5

Compound: [2H]C([2H])([2H])Oc1ncccc1-n1nc2c(c1C)Nc1ncc3c(Cl)nn(c3n1)CCCO2 [Example 24, 8-Chloro-2-(2-(methoxy-d3)pyridin-3-yl)-3-methyl-2,4,12,13-tetrahydro-11H-5,7-(azenometheno)dipyrazolo[3,4-b:5′,1′-g][1]oxa[4,6,8]triazacycloundecine]
- CLint scaled at 1 μM [1]: 12.5 mL/min/kg
- IC50 (LRRK2 G2019S): 350 pM
- CLint scaled at 0.05 μM [2]: 17.7 mL/min/kg
- IC50 (LRRK2 WT [3]): 490 pM
- IC50 (LRRK2 WT [4]): 950 pM
